The source of these data is patent US20250179059A1 (The Regents of the University of California, priority 2021, published 2025).

Where two headings read alike, the source gives them in different places. Some results are limits rather than exact numbers.

Experiment [1] deals with T1, human BRD4 bromodomain II (Homo sapiens, UniProt O60885).
T1 construct: human BRD4 bromodomain II [based on Genbank NM_058243, residues 349-460]; host or cells: E. coli
As to the kind of experiment: Bromodomain binding assay (AlphaScreen), BRD4 BDII. The method, boiled down: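 Inhibition of acetyl-H4 peptide binding to human BRD4 bromodomains is measured by bead-based proximity (AlphaScreen) in pH 7.5 HEPES buffer containing 0.05% CHAPS and 0.1% BSA. Ten compound concentrations in 3-fold steps give competitive binding IC50s.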
A general note: Alpha assays give light when donor and acceptor beads are brought close together.

For experiment [2], the system named is human SKM-1 acute myeloid leukemia cells. In words: SKM-1 antiproliferation cell-based assay (ATPlite). The settings on record: Homo sapiens. An outline of the steps:
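Log-phase cells in RPMI 1640/15% FBS were seeded at 34722 cells/mL and exposed for 4 days to nine-concentration DMSO serial dilutions in triplicate. Viability was read as ATP luminescence (ATPlite 1step), and IC50 values came from variable-slope non-linear regression.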
A general note: In ATP-based viability assays light output follows the ATP content of the culture.

Setting [3] is: AlphaScreen assay, Table C2, read-out: BRD4 BDII IC50.
Setting [4] is: SKM-1, 96 h, SKM-1 antiproliferation assay, 4 days, Table C2.
Where [5] appears, read: BRD4 BDII AlphaScreen assay, read-out: BRD4 BD2 IC50.
The mark [6] stands for this setting: SKM-1, SKM-1 antiproliferation assay.

In the case of `CN1CCN(c2ccc(-c3cc(F)cc(-c4ccnc(N5CCC[C@H](N)C5)c4)c3O)cc2Cl)C1=O` [Example 360, (S)-1-(3′-(2-(3-aminopiperidin-1-yl)pyridin-4-yl)-3-chloro-5′-fluoro-2′-hydroxy-[1,1′-biphenyl]-4-yl)-3-methylimidazolidin-2-one], the IC50 in experiment [1] (setting [3]) lay within 1 to 10 nM. In experiment [2] (setting [4]), the GI50 fell in the range of 30 to 300 nM.

In the case of `CC(C)N1CCN(c2cc(-c3cc(F)cc(-c4ccc(-n5ccn(C)c5=O)c(Cl)c4)c3O)cnc2OC(F)F)CC1` [Example 824, 1-(3-chloro-3′-(6-(difluoromethoxy)-5-(4-isopropylpiperazin-1-yl)pyridin-3-yl)-5′-fluoro-2′-hydroxy-[1,1′-biphenyl]-4-yl)-3-methyl-1H-imidazol-2(3H)-one], in experiment [1] (setting [3]), the half-inhibitory concentration (IC50) fell in the range of 1 to 10 nM. This molecule had a GI50 in experiment [2] (setting [4]) of 0.3 to 30 nM.

Turning to `Cn1ccn(-c2ccc(-c3cc(F)cc(-c4ccnc(N5CCN(CCCO)CC5)c4)c3O)cc2Cl)c1=O` [Example 617, 1-(3-chloro-5′-fluoro-2′-hydroxy-3′-(2-(4-(3-hydroxypropyl)piperazin-1-yl)pyridin-4-yl)-[1,1′-biphenyl]-4-yl)-3-methyl-1H-imrdazol-2(3H)-one], in experiment [1] (setting [3]), the IC50 was 0.01 to 1 nM. In experiment [2] (setting [4]), the concentration for 50% growth inhibition (GI50) was in the range of 0.3 to 30 nM.

Take `Cn1ccn(-c2ccc(-c3cc(F)cc(-c4ccnc(N5CC6CNC(C6)C5)c4)c3O)cc2Cl)c1=O` (stereo not drawn) [Example 554, 1-(3′-(2-(3,6-diazabicyclo[3.2.1]octan-3-yl)pyridin-4-yl)-3-chloro-5′-fluoro-2′-hydroxy-[1,1′-biphenyl]-4-yl)-3-methyl-1H-imidazol-2(3H)-one]: the half-inhibitory concentration (IC50) in experiment [1] (setting [3]) is 1 to 10 nM. In experiment [2] (setting [4]), this molecule returned a GI50 of 0.3 to 30 nM.

For the molecule `Cn1ccn(-c2ccc(-c3cc(F)cc(-c4cccc(-c5ccc(CN)cc5)c4)c3O)cc2Cl)c1=O` [Example 863], the IC50 in experiment [1] (setting [5]) was in the range of 10 to 100 nM. Also, in experiment [2] (setting [6]), the GI50 lay in the range of 300 to 3000 nM.

Take `Cn1ccn(-c2ccc(-c3cc(F)cc(-c4ccc5ncc(C(C)(C)O)cc5c4)c3O)cc2Cl)c1=O` [Example 796, 1-(3-chloro-5′-fluoro-2′-hydroxy-3′-(3-(2-hydroxypropan-2-yl)quinolin-6-yl)-[1,1′-biphenyl]-4-yl)-3-methyl-1H-imidazol-2(3H)-one]: the IC50 in experiment [1] (setting [3]) lay within 1 to 10 nM. The concentration for 50% growth inhibition (GI50) in experiment [2] (setting [4]) is 30 to 300 nM.

For the molecule `O=C1CCN1c1ccc(-c2cc(F)cc(-c3ccnc(N4CCNCC4)c3)c2O)cc1Cl` [Example 417, 1-(3-chloro-5′-fluoro-2′-hydroxy-3′-(2-(piperazin-1-yl)pyridin-4-yl)-[1,1′-biphenyl]-4-yl)azetidin-2-one], the IC50 in experiment [1] (setting [3]) was 1 to 10 nM. In experiment [2] (setting [4]), this molecule gave a GI50 of 300 to 3000 nM.

Turning to `Cc1cc(-c2ccc(-n3ccn(C)c3=O)c(Cl)c2)c(O)c(-c2cc(N3CCNCC3)c3nn[nH]c3c2)c1` [Example 565], the IC50 in experiment [1] (setting [3]) is 0.01 to 1 nM. The molecule further gave a GI50 in experiment [2] (setting [4]) of 0.3 to 30 nM.

For `CN1CC2CN(c3cc(-c4cc(F)cc(-c5ccc(-n6ccn(C)c6=O)c(Cl)c5)c4O)ccn3)CC21` (stereo not drawn) [Example 659, 1-(3-chloro-5′-fluoro-2′-hydroxy-3′-(2-(6-methyl-3,6-diazabicyclo[3.2.0]heptan-3-yl)pyridin-4-yl)-[1,1′-biphenyl]-4-yl)-3-methyl-1H-imidazol-2(3H)-one], the IC50 in experiment [1] (setting [3]) lay in the range of 0.01 to 1 nM. The same molecule displayed a GI50 in experiment [2] (setting [4]) of 0.3 to 30 nM.

Consider `COc1ncc(-c2cc(F)cc(-c3ccc(-n4ccn(C)c4=O)c(Cl)c3)c2O)cc1N1CC[C@@]2(CCCN2C(C)C)C1` [Example 957, (S)-1-(3-chloro-5′-fluoro-2′-hydroxy-3′-(5-(1-isopropyl-1,7-diazaspiro[4.4]nonan-7-yl)-6-methoxypyridin-3-yl)-[1,1′-biphenyl]-4-yl)-3-methyl-1,3-dihydro-2H-imidazol-2-one], for which the half-maximal inhibitory concentration (IC50) in experiment [1] (setting [5]) lay within 0.01 to 1 nM. This molecule also yielded a GI50 in experiment [2] (setting [6]) of 0.3 to 30 nM.

For the molecule `CCC1CCN(c2ccc(-c3cccc(-c4ccnc(N5CCNCC5)c4)c3O)cc2Cl)C1=O` (stereo not drawn) [Example 345, 1-(3-chloro-2′-hydroxy-3′-(2-(piperazin-1-yl)pyridin-4-yl)-[1,1′-biphenyl]-4-yl)-3-ethylpyrrolidin-2-one], the IC50 in experiment [1] (setting [3]) was over 100 nM. In experiment [2] (setting [4]), the GI50 was in the range of 300 to 3000 nM.

For the molecule `Cc1ccc(-c2cc(F)cc(-c3ccc(-n4ccn(C)c4=O)c(Cl)c3)c2O)cc1N1CC[C@@](C)(O)C1` [Example 808, (R)-1-(3-chloro-5′-fluoro-2′-hydroxy-3″-(3-hydroxy-3-methylpyrrolidin-1-yl)-4″-methyl-[1,1′:3′,1″-terphenyl]-4-yl)-3-methyl-1H-imidazol-2(3H)-one], in experiment [1] (setting [3]), the IC50 fell in the range of 1 to 10 nM. The molecule further yielded a GI50 in experiment [2] (setting [4]) of 30 to 300 nM.

In the case of `CN1CCN(c2ccc(-c3cccc(-c4ccc5[nH]c6c(c5c4)CNCC6)c3O)cc2Cl)C1=O` [Example 369, 1-(3-chloro-2′-hydroxy-3′-(2,3,4,5-tetrahydro-1H-pyrido[4,3-b]indol-8-yl)-[1,1′-biphenyl]-4-yl)-3-methylimidazolidin-2-one], the IC50 in experiment [1] (setting [3]) was 10 to 100 nM. In addition, the GI50 in experiment [2] (setting [4]) was at least 3000 nM.

Consider `[2H]C([2H])([2H])N1CCN(c2ccc(-c3cc(F)cc(-c4ccnc(N5CCNCC5)c4)c3O)cc2Cl)C1=O` [Example 412, 1-(3-chloro-5′-fluoro-2′-hydroxy-3′-(2-(piperazin-1-yl)pyridin-4-yl)-[1,1′-biphenyl]-4-yl)-^3-deuteromethylimidazolidin-2-one], for which the IC50 in experiment [1] (setting [3]) was 0.01 to 1 nM. The same molecule had a GI50 in experiment [2] (setting [4]) of 30 to 300 nM.

On to `Cc1cc(-c2cc(F)cc(-c3ccnc(N4CCNCC4)c3)c2O)ccc1N1CCN(C)C1=O` [Example 380, 1-(5′-fluoro-2′-hydroxy-3-methyl-3′-(2-(piperazin-1-yl)pyridin-4-yl)-[1,1′-biphenyl]-4-yl)-3-methylimidazolidin-2-one], for which the IC50 in experiment [1] (setting [3]) lay in the range of 1 to 10 nM. Also, in experiment [2] (setting [4]), the 50% growth inhibitory concentration (GI50) lay within 30 to 300 nM.

In the case of `Cn1ccn(-c2ccc(-c3cc(F)cc(-c4ccc(C(F)(F)F)c(N5CCN(C(C)(C)C)CC5)c4)c3O)cc2Cl)c1=O` [Example 810, 1-(3″-(4-(tert-butyl)piperazin-1-yl)-3-chloro-5′-fluoro-2′-hydroxy-4″-(trifluoromethyl)-[1,1′:3′,1″-terphenyl]-4-yl)-3-methyl-1H-imidazol-2(3H)-one], the IC50 in experiment [1] (setting [3]) was 1 to 10 nM. The molecule also displayed a concentration for 50% growth inhibition (GI50) in experiment [2] (setting [4]) of 30 to 300 nM.

On to `CC(=O)Nc1ccc(-c2cc(F)cc(-c3ccnc(N4CCNCC4)c3)c2O)cc1Cl` [Example 222, N-(3-chloro-5′-fluoro-2′-hydroxy-3′-(2-(piperazin-1-yl)pyridin-4-yl)-[1,1′-biphenyl]-4-yl)acetamide], for which the IC50 in experiment [1] (setting [3]) lay within 1 to 10 nM. The same molecule showed a GI50 in experiment [2] (setting [4]) of 300 to 3000 nM.

For the molecule `CC(C)N1CCC2CN(c3cc(-c4cc(F)cc(-c5ccc(-n6ccn(C)c6=O)c(Cl)c5)c4O)ccn3)CC21` (stereo not drawn) [Example 727, 1-(3-chloro-5′-fluoro-2′-hydroxy-3′-(2-(1-isopropylhexahydropyrrolo[3,4-b]pyrrol-5(1H)-yl)pyridin-4-yl)-[1,1′-biphenyl]-4-yl)-3-methyl-1H-imidazol-2(3H)-one], the IC50 in experiment [1] (setting [3]) fell in the range of 0.01 to 1 nM. This molecule yielded a GI50 in experiment [2] (setting [4]) of 0.3 to 30 nM.

For the molecule `CN1CCN(c2ccc(-c3cc(F)cc(-c4ncc(N5CCOCC5)cc4N4CCNCC4)c3O)cc2Cl)C1=O` [Example 416, 1-(3-chloro-5′-fluoro-2′-hydroxy-3′-(5-morpholino-3-(piperazin-1-yl)pyridin-2-yl)-[1,1′-biphenyl]-4-yl)-3-methylimidazolidin-2-on], the half-maximal inhibitory concentration (IC50) in experiment [1] (setting [3]) is 10 to 100 nM. Also, the GI50 in experiment [2] (setting [4]) was at least 3000 nM.

Regarding `Cc1cc(-c2ccc(-n3ccn(C)c3=O)c(Cl)c2)c(O)c(-c2cccc(N3CCC4(CCCN4C(C)C)C3)c2)n1` (stereo not drawn) [Example 981, 1-(2-chloro-4-(3-hydroxy-2-(3-(1-isopropyl-1,7-diazaspiro[4.4]nonan-7-yl)phenyl)-6-methylpyridin-4-yl)phenyl)-3-methyl-1H-imidazol-2(3H)-one], in experiment [1] (setting [5]), the half-inhibitory concentration (IC50) was in the range of 1 to 10 nM. Moreover, the 50% growth inhibitory concentration (GI50) in experiment [2] (setting [6]) was 0.3 to 30 nM.

In the case of `Cn1ccn(-c2ccc(-c3cc(F)cc(-c4cc(N5CC6CCC(C5)N6)c5cnn(C)c5c4)c3O)cc2Cl)c1=O` [Example 607, 1-(3′-(4-(3,8-diazabicyclo[3.2.1]octan-3-yl)-1-methyl-1H-indazol-6-yl)-3-chloro-5′-fluoro-2′-hydroxy-[1,1′-biphenyl]-4-yl)-3-methyl-1H-imidazol-2(3H)-one], the half-maximal inhibitory concentration (IC50) in experiment [1] (setting [3]) fell in the range of 0.01 to 1 nM. The molecule further yielded a GI50 in experiment [2] (setting [4]) of 0.3 to 30 nM.

Turning to `Cn1ccn(-c2ccc(-c3cc(F)cc(-c4ccnc(N5CCCN(C(C)(C)C)CC5)c4)c3O)cc2Cl)c1=O` [Example 840, 1-(3′-(2-(4-(tert-butyl)-1,4-diazepan-1-yl)pyridin-4-yl)-3-chloro-5′-fluoro-2′-hydroxy-[1,1′-biphenyl]-4-yl)-3-methyl-1H-imidazol-2(3H)-one], the half-inhibitory concentration (IC50) in experiment [1] (setting [3]) was in the range of 0.01 to 1 nM. The same molecule displayed a GI50 in experiment [2] (setting [4]) of 0.3 to 30 nM.

As for `CNCc1n[nH]c2ccc(-c3cc(F)cc(-c4ccc(-n5ccn(C)c5=O)c(Cl)c4)c3O)cc12` [Example 494, 1-(3-chloro-5′-fluoro-2′-hydroxy-3′-(3-((methylamino)methyl)-1H-indazol-5-yl)-[1,1′-biphenyl]-4-yl)-3-methyl-1H-imidazol-2(3H)-one], the IC50 in experiment [1] (setting [3]) is 1 to 10 nM. For the same molecule, the 50% growth inhibitory concentration (GI50) in experiment [2] (setting [4]) lay in the range of 30 to 300 nM.

In the case of `CN[C@H]1CCN(c2cc(-c3cc(F)cc(-c4ccc(N5CCN(C)C5=O)c(Cl)c4)c3O)ccn2)C1` [Example 438, (S)-1-(3-chloro-5′-fluoro-2′-hydroxy-3′-(2-(3-(methylamino)pyrrolidin-1-yl)pyridin-4-yl)-[1,1′-biphenyl]-4-yl)-3-methylimidazolidin-2-one], the IC50 in experiment [1] (setting [3]) fell in the range of 1 to 10 nM. The GI50 in experiment [2] (setting [4]) lay within 30 to 300 nM.

What is called IC50 is the concentration that inhibits the measured activity by half. By GI50 is commonly meant the concentration at which growth is held to half of that of the control. Lower therefore signals greater sensitivity of the cells.
